Assay results: PubChem BioAssay (NCI)
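These data come from cells grown in 96-well plates and exposed to compound for 48 hours at five concentrations. GI50 marks 50% less growth. The concentration for full growth arrest is given as TGI.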

How the values were obtained:
Assay in all cases: DTP human tumour cell line panel, 48 h
[1] = tested on: COLO 205 colon
[2] = tested on: OVCAR-4 ovarian
[3] = tested on: RXF 393 renal
[4] = tested on: SK-MEL-28 melanoma
[5] = tested on: SN12C renal
[6] = tested on: TK-10 renal
[7] = tested on: UACC-257 melanoma
[8] = tested on: UO-31 renal
[9] = tested on: HS 578T breast
[10] = tested on: U251 CNS

Row | SMILES | TGI [1] [µM] | TGI [2] [µM] | TGI [3] [µM] | TGI [4] [µM] | TGI [5] [µM] | TGI [6] [µM] | TGI [7] [µM] | TGI [8] [µM] | TGI [9] [µM] | TGI [10] [µM] | GI50 [3] [µM]
1 | COc1ccc(-c2cc(=O)c3cc(OC)ccc3[nH]2)cc1 | > 100 | > 100 | > 100 | > 100 | > 100 | > 100 | > 100 | > 100 | – | – | –
2 | COC(=O)C1(C#N)C(C)(C)N=C(c2ccccc2)C12CCCCC2 (stereo not given) | > 100 | > 100 | > 100 | > 100 | > 100 | > 100 | > 100 | > 100 | > 100 | > 100 | –
3 | O=C1CSC(c2ccccc2[N+](=O)[O-])N1c1ccc(-c2ccc(-n3c(-c4ccccc4)nc4ccccc4c3=O)cc2)cc1 (stereo not given) | > 100 | > 100 | – | > 100 | > 100 | > 100 | > 100 | > 100 | > 100 | > 100 | –
4 | Cc1cc(/C=C/c2cc[n+](C)c3ccccc23)c(O)c2ncccc12 | 23.3 | 32.4 | 9.83 | 13.6 | 16 | 17.5 | 13.5 | 21.3 | – | 13.5 | –
5 | COc1ccccc1-c1cc(=O)c2cc3c(cc2[nH]1)OCO3 | 51.5 | 92 | 56.2 | > 100 | > 100 | > 100 | > 100 | > 100 | – | > 100 | 15.1
6 | Cc1c(N2CCN(C)CC2)nc2ccc(Cl)cc2c1-c1ccccc1 | 29.7 | 36.9 | 42.3 | 32.9 | 29 | > 10 | 33 | 36.1 | – | 33.1 | –
7 | C=C(CCC/C(C)=C/C=C/[C@@H](C)CCCc1ccoc1)C[C@@H]1OC(=O)[C@H](C)[C@@H]1O | 20.5 | 20.1 | 19.3 | 19.1 | 20.6 | 25.8 | 15.1 | 15.9 | – | 25.4 | –
8 | C/C(CC(O)(/C=N/O)c1ccccc1)=N/O (stereo not given) | – | > 100 | – | > 100 | > 100 | > 100 | > 100 | > 100 | > 100 | > 100 | –
9 | N#CC(Cc1ccccc1)N(CCC1=CCCCC1)Cc1ccccc1 (stereo not given) | 66.4 | > 100 | > 100 | > 100 | – | > 100 | > 100 | > 100 | > 100 | > 100 | –
10 | CSc1nc(NC2OC(COC(C)=O)C(OC(C)=O)C(OC(C)=O)C2OC(C)=O)c2c(n1)OCC2=O (stereo not given) | > 100 | > 100 | – | > 100 | > 100 | > 100 | > 100 | > 100 | – | > 100 | –
11 | CC(=O)Nc1c(C)cc2c(nc3n2CCC3OC(C)=O)c1[N+](=O)[O-] (stereo not given) | > 100 | > 100 | > 100 | > 100 | > 100 | – | > 100 | > 100 | > 100 | > 100 | –
12 | CN1C(=O)C2(C=CC(O)CC2)c2ccccc21 (stereo not given) | > 100 | > 100 | – | > 100 | > 100 | > 100 | > 100 | > 100 | – | > 100 | –
13 | CN(C)CCn1c(=O)c2ccc(NCCN3CCNCC3)c3c(=O)c4ccccc4n(c1=O)c23 | 13 | 32.3 | – | 25.5 | 14.6 | 27.5 | 17.3 | 17.9 | 25.9 | 24.8 | –
14 | O=c1c2cc3c(=O)n4c(cc(-c5ccccc5)c5cc(Cl)ccc54)nc3cc2nc2cc(-c3ccccc3)c3cc(Cl)ccc3n12 | > 100 | – | > 100 | > 100 | > 100 | > 100 | > 100 | > 100 | > 100 | > 100 | –
15 | Cc1cc(Cc2cc(C)c(NC(=O)C(=O)C3CCC4=C(SC5C=CC=CC5N4)C3=O)c(C(C)C)c2)cc(C(C)C)c1NC(=O)C(=O)C1CCC2=C(SC3C=CC=CC3N2)C1=O (stereo not given) | > 100 | > 100 | > 100 | > 100 | > 100 | > 100 | > 100 | > 100 | – | > 100 | –
16 | COc1ccc(N2C(=O)C3c4[nH]c5ccc(Br)cc5c4C4CCC(C(C)(C)C)CC4C3C2=O)cc1 (stereo not given) | > 100 | > 100 | > 100 | > 100 | > 100 | > 100 | > 100 | – | > 100 | > 100 | –
17 | NC(=O)Cc1nc2c(N)ncnc2n1C1OC(CO)C(O)C1O (stereo not given) | > 100 | > 100 | – | > 100 | > 100 | > 100 | > 100 | > 100 | > 100 | > 100 | –
18 | CC(C)NC(=O)OCc1c(CO)c2c(n1C)-c1ccccc1CC2 | 44.7 | 73 | 49.6 | 64.4 | 59.8 | – | > 100 | 71.4 | – | > 61.4 | –
19 | CCOC(=O)C(Cc1ccc(OC(=O)c2ccc(OC)cc2)cc1)NC(=O)C(F)(F)F (stereo not given) | > 100 | > 100 | 73.2 | – | > 100 | > 100 | > 100 | > 100 | > 100 | > 100 | –
20 | Cc1ccc(/C(O)=C/C(=O)C(=O)NC23CC4CC(CC(C4)C2)C3)cc1 | > 10 | > 10 | > 10 | > 10 | > 10 | > 10 | > 10 | – | – | – | –
21 | COc1ccc(/C(Cl)=C(\C=N/O)c2ccc(OC)c(OC)c2)cc1OC | > 100 | > 100 | > 100 | > 100 | > 100 | > 100 | > 100 | > 100 | – | > 100 | –
22 | O=C(CN1CCOCC1)c1ccc2c(c1)oc(=O)n2CCN1CCOCC1 | > 100 | – | > 100 | > 100 | > 100 | – | – | – | > 100 | > 100 | –
